Assay [1] has as its target Caenorhabditis elegans slo-1a (Caenorhabditis elegans, UniProt Q95V25).
Method: In Vitro Assay: Agonistic Activity at C. elegans Slo-1a
A CHO K1 cell line stably transfected with the Caenorhabditis elegans slo-1a (accession no Y51A2D.19a) was established. Cells were seeded in microtiter plates (black 384-well MTP, clear bottom) in a concentration of 10,000 cells/well in 25 μl medium and cultured for 20 to 24 hours at 37° C. and 5% CO2. The cell medium was removed, and the cells washed with Tyrode's solution. 25 μl of FMP-dye Blue-Tyrode's was added to each well and incubated at room temperature for 30 min.
(§1) For the membrane potential measurements, the prepared cell plate and substance plate were placed in the FLIPR Tetra (Molecular Devices). The baseline measurement of the fluorescence was stared for 20 sec (Exc. 510-545 nm, Emm. 565-625 nm). The cells were depolarized by addition of 25 μl of the diluted test compounds (final assay concentration of the KCl-Tyrode: 70 mM KCl, 2 mM CaCl2, 1 mM MgCl2, 0.8 mM NaH2PO4, 5 mM Glucose, 28 mM Hepes, pH 7.4, including the voltage sensitive dye). The complete measurement takes 150 s.
(§2) EC50 values were determined in triplicate utilizing compound dilution series. The data were determined at least in two independent tests. The data were proceeded by using the ActivityBase XE Runner software (IDBS) for curve fitting and calculation of the half-maximal effective concentration.
Assay [2] has as its system Oesophagostomum dentatum (nodular worm of swine), larval stage 3. The assay can be described thus: In vitro assay: Oesophagostomum dentatum L3 larvae, minimum effective concentration. To be noted: in Sus scrofa, read-out: MEC (minimum effective concentration) against Oesophagostomum dentatum L3, L3 larvae, 20 per well, microscopic examination, concentration at which at least one larva shows mortality, change in motility or development.
From the text: (§3) In Vitro Assay: Ascaridia galli and Oesophagostomum dentatum
(§4) Ascaridia galli (intestinal roundworm of chicken), larval stage 3 (“L3”); and Oesophagostomum dentatum (nodular worm of swine), larval stages 3 and 4 (respectively “L3” and “L4”) where suspended in a nutrient medium and distributed to 96 well plates with 20 larvae per well. The wells were spiked with DMSO solutions of the compounds with declining concentration.

The target of assay [3] is human Maxi K channel (BK channel), KCNMA1 (KCa1.1) and beta1 (KCNMB1) subunits (Homo sapiens, UniProt Q12791).
Method: In Vitro Assay: Agonistic Activity at the Human Maxi K Channel (BK Channel)
A CHO K1 cell line was stably transfected with the KCNMA1 (KCa1.1, U11058) and beta1 (KCNMB1) subunits of the human Maxi K channel (Ponte et al, Molecular Pharmacology 2012, 81(4), 567-577).
Cells were seeded in microtiter plates (black 384-well MTP, clear bottom) in a concentration of 10,000 cells/well in 25 μl medium and cultured for 20 to 24 hours at 37° C. and 5% CO2. The cell medium was removed, and the cells washed with Tyrode's solution. 25 μl of FMP-dye Blue-Tyrode's was added to each well and incubated at room temperature for 30 min.
as §1, §2
The subject of the next assay is larvae L4 of D. immitis. The assay can be described thus: In vitro assay: Dirofilaria immitis L4 motility. Format: cell-based. The note with it: 72 h, read-out: EC50 value, Dirofilaria immitis L4, 10 L4 larvae, 3 days incubation, reduction in motility vs DMSO, duplicates.
The test system of the next assay is D. immitis microfilaria. The assay can be described thus: In vitro assay: Dirofilaria immitis L1 (microfilaria) motility. Type of assay: cell-based. To be noted: 72 h, read-out: EC50 value, Dirofilaria immitis L1, approximately 500 microfilaria, 3 days incubation, reduction in motility vs DMSO, duplicates.
Assay [4] concerns Oesophagostomum dentatum (nodular worm of swine), larval stage 4. The assay can be described thus: In vitro assay: Oesophagostomum dentatum L4 larvae, minimum effective concentration. The note with it: in Sus scrofa, read-out: MEC (minimum effective concentration) against Oesophagostomum dentatum L4, L4 larvae, 20 per well, microscopic examination, concentration at which at least one larva shows mortality, change in motility or development.
From the text: as §3, §4

Another assay relates to A. viteae microfilaria. Kind of assay: In vitro assay: Acanthocheilonema viteae L1 (microfilaria) motility. To be noted: 72 h, read-out: EC50 value, Acanthocheilonema viteae L1, approximately 500 microfilaria, 3 days incubation, reduction in motility vs DMSO, duplicates.

Where only a bound is given, the exact number is not on record here.

Chain of human Maxi K channel (BK channel), KCNMA1 (KCa1.1) and beta1 (KCNMB1) subunits (Q12791 1-1178 isoform Q12791-5): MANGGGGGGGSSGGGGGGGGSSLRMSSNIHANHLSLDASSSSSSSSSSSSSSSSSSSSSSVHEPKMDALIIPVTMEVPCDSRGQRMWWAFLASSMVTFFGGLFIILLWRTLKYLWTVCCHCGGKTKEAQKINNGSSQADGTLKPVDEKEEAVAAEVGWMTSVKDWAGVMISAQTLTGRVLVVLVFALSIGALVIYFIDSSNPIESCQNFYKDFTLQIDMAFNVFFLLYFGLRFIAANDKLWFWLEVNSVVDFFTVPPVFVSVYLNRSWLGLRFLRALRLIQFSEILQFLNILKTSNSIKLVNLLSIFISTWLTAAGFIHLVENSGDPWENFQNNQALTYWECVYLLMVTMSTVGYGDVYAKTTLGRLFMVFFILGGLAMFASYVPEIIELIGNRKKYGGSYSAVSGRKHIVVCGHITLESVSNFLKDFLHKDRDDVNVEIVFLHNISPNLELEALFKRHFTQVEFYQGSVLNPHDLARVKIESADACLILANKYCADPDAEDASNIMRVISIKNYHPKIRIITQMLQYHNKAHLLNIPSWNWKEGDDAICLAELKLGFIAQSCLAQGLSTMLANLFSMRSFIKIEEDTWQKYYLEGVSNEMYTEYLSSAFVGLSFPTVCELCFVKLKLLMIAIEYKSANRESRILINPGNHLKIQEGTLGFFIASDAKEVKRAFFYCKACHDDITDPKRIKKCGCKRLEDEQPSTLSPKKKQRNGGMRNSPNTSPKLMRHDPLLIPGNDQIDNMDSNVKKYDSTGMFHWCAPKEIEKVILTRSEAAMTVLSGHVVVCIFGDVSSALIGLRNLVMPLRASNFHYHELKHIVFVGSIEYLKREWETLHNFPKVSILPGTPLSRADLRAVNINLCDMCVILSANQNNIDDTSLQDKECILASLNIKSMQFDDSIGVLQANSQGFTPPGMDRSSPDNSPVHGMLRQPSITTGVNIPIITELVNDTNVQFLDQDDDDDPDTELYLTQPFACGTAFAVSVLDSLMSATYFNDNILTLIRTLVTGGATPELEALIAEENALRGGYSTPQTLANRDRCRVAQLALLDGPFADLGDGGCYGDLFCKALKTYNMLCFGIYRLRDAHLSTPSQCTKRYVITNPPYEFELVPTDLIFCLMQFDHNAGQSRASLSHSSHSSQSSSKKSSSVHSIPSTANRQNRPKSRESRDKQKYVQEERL
Chain of human Maxi K channel (BK channel), KCNMA1 (KCa1.1) and beta1 (KCNMB1) subunits (Q16558 whole entry partner): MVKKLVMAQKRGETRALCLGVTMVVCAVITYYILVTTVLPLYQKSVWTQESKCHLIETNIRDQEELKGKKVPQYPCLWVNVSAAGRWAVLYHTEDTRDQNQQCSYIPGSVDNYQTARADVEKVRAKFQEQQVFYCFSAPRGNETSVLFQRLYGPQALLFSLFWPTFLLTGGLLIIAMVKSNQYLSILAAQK
Chain of Caenorhabditis elegans slo-1a (Q95V25 whole entry): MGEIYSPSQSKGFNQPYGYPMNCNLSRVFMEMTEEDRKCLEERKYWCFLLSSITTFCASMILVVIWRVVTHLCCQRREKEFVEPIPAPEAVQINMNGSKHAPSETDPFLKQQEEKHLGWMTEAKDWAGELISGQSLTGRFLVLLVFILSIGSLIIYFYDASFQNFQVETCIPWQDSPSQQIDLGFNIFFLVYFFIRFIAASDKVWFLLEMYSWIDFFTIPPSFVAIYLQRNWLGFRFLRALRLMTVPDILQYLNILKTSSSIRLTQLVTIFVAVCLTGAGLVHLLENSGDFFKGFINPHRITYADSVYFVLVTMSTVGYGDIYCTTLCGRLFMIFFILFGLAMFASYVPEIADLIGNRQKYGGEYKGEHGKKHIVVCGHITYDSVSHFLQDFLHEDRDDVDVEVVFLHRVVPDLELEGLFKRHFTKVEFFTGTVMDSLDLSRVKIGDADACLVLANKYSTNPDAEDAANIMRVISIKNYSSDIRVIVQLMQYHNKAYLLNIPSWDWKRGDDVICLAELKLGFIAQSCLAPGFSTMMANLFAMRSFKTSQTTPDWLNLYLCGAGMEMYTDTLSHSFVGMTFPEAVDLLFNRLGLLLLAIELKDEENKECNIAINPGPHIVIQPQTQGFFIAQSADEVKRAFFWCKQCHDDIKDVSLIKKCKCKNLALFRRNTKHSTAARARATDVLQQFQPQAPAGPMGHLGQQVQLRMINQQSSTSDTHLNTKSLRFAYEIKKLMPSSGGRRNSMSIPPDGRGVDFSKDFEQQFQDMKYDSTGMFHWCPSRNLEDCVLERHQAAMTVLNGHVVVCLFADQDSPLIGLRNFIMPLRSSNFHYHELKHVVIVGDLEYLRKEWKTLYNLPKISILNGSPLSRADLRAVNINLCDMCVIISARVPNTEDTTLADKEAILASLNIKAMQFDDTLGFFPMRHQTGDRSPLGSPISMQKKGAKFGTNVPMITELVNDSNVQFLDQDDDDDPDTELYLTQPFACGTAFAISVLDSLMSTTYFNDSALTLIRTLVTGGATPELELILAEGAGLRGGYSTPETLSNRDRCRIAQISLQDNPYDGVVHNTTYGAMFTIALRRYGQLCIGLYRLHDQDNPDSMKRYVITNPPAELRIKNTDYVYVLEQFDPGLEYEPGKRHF
Method for A. viteae microfilaria: In Vitro Assay: Acanthocheilonema viteae L1
Approximately 500 A. viteae microfilaria were added to a microtiter plate containing a nutrient medium and the test compound in DMSO at varying concentrations. After incubation for 3 days, activity was evaluated as reduction in motility as compared to DMSO as negative control. Compounds were tested in duplicates. Based on the concentration response curves EC50 values were calculated.

Broadly, the EC50 is the midpoint of the concentration-response curve. As to `CN(C)c1c(C(=O)NC2CCOc3ccccc32)cnc2c1ccn2-c1cc(Cl)cc(Cl)c1` (stereo not shown) [Compound 5], the values for the EC50 in assay [1] and in assay [3] were less than 1 µM and more than 30 µM, respectively. In addition, the minimal effective concentration in assay [2] was not above 50 µM.

As to `O=C(NC1CCOc2ccccc21)c1cnc2c(ccn2-c2cccc(Cl)c2Cl)c1N1CCOCC1` (stereo not shown) [Compound 8], the 50% effective concentration (EC50) in assay [1] is less than 1 µM; in the assay with larvae L4 of D. immitis it was less than 1 µM; in assay [3] it was more than 30 µM.

Take `O=C(NCc1ccccc1)c1cnc2c(ccn2-c2cc(Cl)cc(Cl)c2)c1N1CCOCC1` [Compound 11]: the minimal effective concentration in assay [2] was not above 50 µM. Moreover, the EC50 in assay [3] is more than 30 µM.

For the compound `CN(C)c1c(C(=O)N[C@@H]2CCc3ccccc32)cnc2c1ccn2-c1cccc(Cl)c1Cl` [Compound 15], the EC50 in assay [3] was more than 30 µM; with D. immitis microfilaria, less than 10 µM.

On to `CN(C)c1c(C(=O)N[C@@H]2CCOc3ccccc32)cnc2c1ccn2-c1cccc(Cl)c1Cl` [Compound 18], for which the results for the EC50 (in assay [1]; in assay [3]; in the assay with A. viteae microfilaria) were less than 10 µM, more than 30 µM and less than 10 µM, respectively. In assay [4], the minimal effective concentration was not above 50 µM.

Take `CN(C)c1c(C(=O)NC2CC(C)(C)Oc3ccccc32)cnc2c1ccn2-c1cccc(Cl)c1Cl` (stereo not shown) [Compound 19]: the EC50 is less than 10 µM in assay [1] and more than 30 µM in assay [3].

Regarding `CN(C)c1c(C(=O)Nc2cccc3ccccc23)cnc2c1ccn2-c1cccc(Cl)c1Cl` [Compound 20], the minimal effective concentration in assay [2] is not above 50 µM. Also, the figures for the EC50 (in assay [3]; in the assay with A. viteae microfilaria) were more than 30 µM and less than 10 µM, respectively.

On to `O=C(N[C@H]1CCOc2ccccc21)c1cnc2c(ccn2-c2cccc(Cl)c2Cl)c1N1CCOCC1` [Compound 21], for which the EC50 in assay [1] is less than 1 µM; in assay [3] it was more than 30 µM.

On to `O=C(Nc1cccc2ccccc12)c1cnc2c(ccn2-c2cccc(Cl)c2Cl)c1N1CCOCC1` [Compound 23], for which the minimal effective concentration in assay [2] and in assay [4] was not above 50 µM throughout. Moreover, the EC50 in assay [3] is more than 30 µM.

For `CN(C)c1c(C(=O)N[C@H]2CCOc3ccccc32)cnc2c1ccn2-c1cccc(F)c1F` [Compound 25], the EC50 in assay [1] is less than 1 µM; in assay [3], more than 30 µM.

As to `CN(C)c1c(C(=O)N[C@H]2CCOc3ccccc32)cnc2c1ccn2-c1cccc(C(F)(F)F)c1` [Compound 28], the EC50 is less than 1 µM in assay [1] and more than 30 µM in assay [3].

Take `Cc1cccc(-n2ccc3c(N(C)C)c(C(=O)N[C@H]4CCOc5ccccc54)cnc32)c1C` [Compound 29]: the values for the EC50 in assay [1] and in assay [3] were less than 1 µM and more than 30 µM, respectively.

On to `CN(C)c1cccc(-n2ccc3c(N(C)C)c(C(=O)N[C@H]4CCOc5ccccc54)cnc32)c1` [Compound 30], for which the results for the EC50 in assay [1] and in assay [3] were less than 1 µM and more than 30 µM, respectively. For the same compound, the minimal effective concentration in assay [2] was not above 50 µM.

Consider `COc1cccc(-n2ccc3c(N(C)C)c(C(=O)N[C@H]4CCOc5ccccc54)cnc32)c1` [Compound 31], for which the results for the EC50 in assay [1] and in assay [3] were less than 1 µM and more than 30 µM, respectively.

Turning to `CN(C)c1c(C(=O)N[C@H]2CCCc3ccccc32)cnc2c1ccn2-c1cc(Cl)cc(Cl)c1` [Compound 34], the EC50 was less than 10 µM in assay [1] and more than 30 µM in assay [3].

On to `O=C(N[C@H]1CCc2ccccc21)c1cnc2c(ccn2-c2cc(Cl)cc(Cl)c2)c1N1CCOCC1` [Compound 37], for which the minimal effective concentration in assay [2] and in assay [4] was not above 50 µM in each case. Besides, the EC50 was more than 30 µM in assay [3], less than 10 µM in the assay on D. immitis microfilaria and less than 10 µM in the assay with A. viteae microfilaria.

As to `CN(C)c1c(C(=O)NC2CC(C)(C)Oc3ccccc32)cnc2c1ccn2-c1cc(Cl)cc(Cl)c1` (stereo not shown) [Compound 38], the EC50 was less than 10 µM in assay [1], 10 to 30 µM in assay [3] and less than 10 µM in the assay on A. viteae microfilaria. In addition, the minimal effective concentration in assay [2] was not above 50 µM.

Consider `CC1(C)CC(NC(=O)c2cnc3c(ccn3-c3cc(Cl)cc(Cl)c3)c2N2CCOCC2)c2ccccc2O1` (stereo not shown) [Compound 39], for which the minimal effective concentration in assay [2] and in assay [4] was not above 50 µM in each case. Further, the results for the EC50 (in assay [3]; with A. viteae microfilaria) were more than 30 µM and less than 10 µM, respectively.

For the compound `CC1(C)CC(NC(=O)c2cnc3c(ccn3-c3cccc(Cl)c3Cl)c2N2CCOCC2)c2ccccc2O1` (stereo not shown) [Compound 40], the EC50 was less than 10 µM in assay [1], more than 30 µM in assay [3] and less than 10 µM in the assay on A. viteae microfilaria. Also, the minimal effective concentration in assay [2] was not above 50 µM.

Turning to `CN(C)c1c(C(=O)Nc2cccc3ccccc23)cnc2c1ccn2-c1cc(Cl)cc(Cl)c1` [Compound 41], the EC50 was more than 30 µM in assay [3] and less than 10 µM in the assay on A. viteae microfilaria.

With `CCOc1c(C(=O)N[C@H]2CCOc3ccccc32)cnc2c1ccn2-c1cc(Cl)cc(Cl)c1` [Compound 43], the minimal effective concentration in assay [4] is not above 50 µM. Also, the EC50 in assay [3] was more than 30 µM; with D. immitis microfilaria, less than 10 µM.

For the compound `COc1c(C(=O)N[C@H]2CCCc3ccccc32)cnc2c1ccn2-c1cc(Cl)cc(Cl)c1` [Compound 48], the minimal effective concentration in assay [2] is not above 50 µM. In addition, the half-maximal effective concentration (EC50) in assay [3] was more than 30 µM; with A. viteae microfilaria, less than 10 µM.

Take `COc1c(C(=O)Nc2cccc3ccccc23)cnc2c1ccn2-c1cc(Cl)cc(Cl)c1` [Compound 50]: the results for the EC50 (in assay [3]; in the assay with D. immitis microfilaria) were more than 30 µM and less than 10 µM, respectively.

Consider `O=C(N[C@H]1CCOc2ccccc21)c1cnc2c(ccn2-c2cc(Cl)cc(Cl)c2)c1O` [Compound 51], for which the EC50 is more than 30 µM in assay [3], less than 10 µM in the assay on D. immitis microfilaria and less than 10 µM in the assay with A. viteae microfilaria.
